In US20250320184A1 (SIRONAX LTD., priority 2022, published 2025):
pIC50: −log10 of the molar value.

Target: T1, SARM1 (50-724) (Homo sapiens, UniProt Q6SZW1)
T1 sequence (Q6SZW1 50-724): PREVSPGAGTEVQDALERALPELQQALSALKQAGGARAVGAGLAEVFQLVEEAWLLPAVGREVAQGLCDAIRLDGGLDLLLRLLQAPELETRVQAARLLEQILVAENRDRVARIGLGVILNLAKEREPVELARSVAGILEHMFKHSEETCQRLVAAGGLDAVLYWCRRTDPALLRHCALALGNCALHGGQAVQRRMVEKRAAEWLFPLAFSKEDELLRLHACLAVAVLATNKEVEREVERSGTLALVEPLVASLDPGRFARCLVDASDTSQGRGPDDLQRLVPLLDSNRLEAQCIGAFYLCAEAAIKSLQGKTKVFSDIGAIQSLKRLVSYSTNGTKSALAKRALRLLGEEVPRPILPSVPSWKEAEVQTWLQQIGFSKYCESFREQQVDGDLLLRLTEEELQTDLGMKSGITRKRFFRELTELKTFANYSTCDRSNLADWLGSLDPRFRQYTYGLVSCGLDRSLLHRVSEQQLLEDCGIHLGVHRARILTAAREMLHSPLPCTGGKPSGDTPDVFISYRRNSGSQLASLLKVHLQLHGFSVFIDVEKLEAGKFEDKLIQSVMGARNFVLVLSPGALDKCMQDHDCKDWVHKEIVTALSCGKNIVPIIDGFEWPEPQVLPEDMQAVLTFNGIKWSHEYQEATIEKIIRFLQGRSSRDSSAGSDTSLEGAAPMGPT
Experiment: biochemical
Protocol: An enzymatic assay was performed in a 384-well plate using Dulbecco's phosphate-buffered saline (PBS) as the reaction buffer. […] The reaction was initiated by adding a mixture of 200 μM nicotinamide mononucleotide (NMN) as activator and 100 μM NAD^+ as substrate. After 1 h of incubation at room temperature, the reaction was terminated with 10 times volume of 70% acetonitrile, then centrifuged at 3800 rpm for 10 min.

Compound | pIC50
CC(Nc1ccc2cc[nH]c(=O)c2c1)c1cc(Cl)cc(Cl)c1Cl (racemic) [Example 138, 7-((1-(2,3,5-trichlorophenyl)ethyl)amino)isoquinolin-1(2H)-one] | > 7.00
CC(Nc1ccc2cc[nH]c(=O)c2c1)c1cccc(F)c1Cl (racemic) [Example 139, 7-((1-(2-chloro-3-fluorophenyl)ethyl)amino)isoquinolin-1(2H)-one] | 6.30 to 7.00
CC(Nc1ccc2ccnn2c1)c1cccc(Cl)c1Cl (racemic) [Example 140, N-(1-(2,3-dichlorophenyl)ethyl)pyrazolo[1,5-a]pyridin-6-amine] | 6.00 to 6.30
CC(Nc1ccc2c(cnn2C)c1)c1cccc(Cl)c1Cl (racemic) [Example 141, N-(1-(2,3-dichlorophenyl)ethyl)-1-methyl-1H-indazol-5-amine] | < 6.00
CC(Nc1ccc2ccn(Cc3ccccc3)c(=O)c2c1)c1cccc(Cl)c1Cl (racemic) [Example 142, 2-benzyl-7-((1-(2,3-dichlorophenyl)ethyl)amino)isoquinolin-1(2H)-one] | 6.00 to 6.30
CCC(Nc1ccc2cc[nH]c(=O)c2c1)c1cccc(Cl)c1Cl (racemic) [Example 143, 7-((1-(2,3-dichlorophenyl)propyl)amino)isoquinolin-1(2H)-one] | > 7.00
Cc1cc(F)cc(C(Nc2ccc3c(c2)C(=O)NCC3)C(C)C)c1 (racemic) [Example 144, 7-((1-(3-fluoro-5-methylphenyl)-2-methylpropyl)amino)-3,4-dihydroisoquinolin-1(2H)-one] | 6.30 to 7.00
C=CCCC(Nc1ccc2c(c1)C(=O)NCC2)c1cc(C)cc(F)c1 (racemic) [Example 145, 7-((1-(3-fluoro-5-methylphenyl)pent-4-en-1-yl)amino)-3,4-dihydroisoquinolin-1(2H)-one] | 6.00 to 6.30
CCC(Nc1ccc2nc[nH]c(=O)c2c1)c1cccc(Cl)c1Cl (racemic) [Example 146, 6-[1-(2,3-dichlorophenyl)propylamino]-3H-quinazolin-4-one] | > 7.00
CCC(Nc1ccc2c(c1)C(=O)NCN2)c1cccc(Cl)c1Cl (racemic) [Example 147, 6-((1-(2,3-dichlorophenyl)propyl)amino)-2,3-dihydroquinazolin-4(1H)-one] | 6.30 to 7.00
CC(Nc1ccc2nccc(=O)n2c1)c1cccc(Cl)c1Cl (racemic) [Example 148, 7-((1-(2,3-dichlorophenyl)ethyl)amino)-4H-pyrido[1,2-a]pyrimidin-4-one] | < 6.00
CC(Nc1ccc2cnn(C)c(=O)c2c1)c1cccc(Cl)c1Cl (racemic) [Example 149, 7-((1-(2,3-dichlorophenyl)ethyl)amino)-2-methylphthalazin-1(2H)-one] | 6.30 to 7.00
CC(Nc1cccc(-c2cccnn2)c1)c1cccc(Cl)c1Cl (racemic) [Example 150, N-(1-(2,3-dichlorophenyl)ethyl)-3-(pyridazin-3-yl)aniline] | < 6.00
CC(Nc1ccc2ccn(C)c(=O)c2c1)c1c(Cl)cccc1Cl (racemic) [Example 151, 7-((1-(2,6-dichlorophenyl)ethyl)amino)-2-methylisoquinolin-1(2H)-one] | 6.30 to 7.00
CCC(Nc1ccc2cc[nH]c(=O)c2c1)c1nccc(Cl)c1Cl (racemic) [Example 153, 7-((1-(3,4-dichloropyridin-2-yl)propyl)amino)isoquinolin-1(2H)-one] | > 7.00
CCC(Nc1ccc2c(c1)C(=O)NCC2)c1nccc(Cl)c1Cl (racemic) [Example 154, 7-((1-(3,4-dichloropyridin-2-yl)propyl)amino)-3,4-dihydroisoquinolin-1(2H)-one] | 6.30 to 7.00
CCC(Nc1ccc2nc[nH]c(=O)c2c1)c1nccc(Cl)c1Cl (racemic) [Example 155, 6-((1-(3,4-dichloropyridin-2-yl)propyl)amino)quinazolin-4(3H)-one] | 6.30 to 7.00
CC(Nc1ccc2nc[nH]c(=O)c2c1)c1ccc(F)c(Cl)c1Cl (racemic) [Example 156, 6-[1-(2,3-dichloro-4-fluoro-phenyl)ethylamino]-3H-quinazolin-4-one] | > 7.00
CC(Nc1ccc2c(c1)C(=O)NCN2)c1ccc(F)c(Cl)c1Cl (racemic) [Example 157, 6-((1-(2,3-dichloro-4-fluorophenyl)ethyl)amino)-2,3-dihydroquinazolin-4(1H)-one] | 6.30 to 7.00
O=C1NCCc2ccc(NS(=O)(=O)N3C[C@@H]4CC[C@H]3C4)cc21 (racemic) [Example 167, N-(1-oxo-1,2,3,4-tetrahydroisoquinolin-7-yl)-2-azabicyclo[2.2.1]heptane-2-sulfonamide] | < 6.00

Results, then the compound that gave them:

pIC50 | Compound
< 6.00 | CC1CCCN(S(=O)(=O)Nc2ccc3c(c2)C(=O)NCC3)C1 (racemic) [Example 169, 3-methyl-N-(1-oxo-1,2,3,4-tetrahydroisoquinolin-7-yl)piperidine-1-sulfonamide]
> 7.00 | Cc1c(F)ccc(C(C)Nc2ccc3cc[nH]c(=O)c3c2)c1Cl (racemic) [Example 192, 7-[1-(2-chloro-4-fluoro-3-methyl-phenyl)ethylamino]-2H-isoquinolin-1-one]
> 7.00 | CC(Nc1ccc2nc[nH]c(=O)c2c1)c1c(Cl)ccc(F)c1Cl (racemic) [Example 193, 6-((1-(2,6-dichloro-3-fluorophenyl)ethyl)amino)quinazolin-4(3H)-one]
> 7.00 | CC(Nc1ccc2nc[nH]c(=O)c2c1)c1c(Cl)ccc(Cl)c1Cl (racemic) [Example 195, 6-((1-(2,3,6-trichlorophenyl)ethyl)amino)quinazolin-4(3H)-one]
> 7.00 | CC(Nc1ccc2cn[nH]c(=O)c2c1)c1c(Cl)ccc(Cl)c1Cl (racemic) [Example 198, 7-((1-(2,3,6-trichlorophenyl)ethyl)amino)phthalazin-1(2H)-one]
6.30 to 7.00 | CC(Nc1ccc2cn[nH]c(=O)c2c1)c1cc(F)cc(Cl)c1Cl (racemic) [Example 200, 7-((1-(2,3-dichloro-5-fluorophenyl)ethyl)amino)phthalazin-1(2H)-one]
> 7.00 | CC(Nc1ccc2cc[nH]c(=O)c2c1)c1ccc(F)c(Cl)c1Cl (racemic) [Example 203, 7-[1-(2,3-dichloro-4-fluoro-phenyl)ethylamino]-2H-isoquinolin-1-one]
> 7.00 | CC(Nc1ccc2cc[nH]c(=O)c2n1)c1cc(F)cc(Cl)c1Cl (racemic) [Example 205, 2-((1-(2,3-dichloro-5-fluorophenyl)ethyl)amino)-1,7-naphthyridin-8(7H)-one]
> 7.00 | CC(Nc1ccc2c(c1)NC(=O)C2(C)C)c1nccc(Cl)c1Cl (racemic) [Example 210, 6-((1-(3,4-dichloropyridin-2-yl)ethyl)amino)-3,3-dimethylindolin-2-one]
> 7.00 | Cc1nc(C(C)Nc2ccc3cc[nH]c(=O)c3c2)sc1C (racemic) [Example 213, 7-((1-(4,5-dimethylthiazol-2-yl)ethyl)amino)isoquinolin-1(2H)-one]
6.30 to 7.00 | CC(Nc1ccc2cc[nH]c(=O)c2c1)c1nn2c(c1Cl)CCC2 (racemic) [Example 221, 7-((1-(3-chloro-5,6-dihydro-4H-pyrrolo[1,2-b]pyrazol-2-yl)ethyl)amino)isoquinolin-1(2H)-one]
> 7.00 | Cc1n[nH]c(=O)c2cc(NC(C)c3c(Cl)ccc(F)c3Cl)ccc12 (racemic) [Example 222, 7-((1-(2,6-dichloro-3-fluorophenyl)ethyl)amino)-4-methylphthalazin-1(2H)-one]
